The text below walks through data of US10174016B2 (BAYER AKTIENGESELLSCHAFT, priority 2014, dated 2019).

Structures are written as SMILES. Like-named read-outs stand apart in the source and are kept apart here.

The test system of data set [1] is CFA-induced mechanical hyperalgesia. The experiment in a line: Rat CFA in vivo model (mechanical hyperalgesia, paw withdrawal threshold). The arrangement: species or system Male Sprague Dawley rats. The note with it: dosed 24 hours after CFA injection. The method, then: Rat CFA In Vivo Model Male Sprague Dawley rats were used. Mechanical hyperalgesia was induced by injecting 25 μl of Complete Freund's Adjuvant (CFA) into the plantar surface of one hind paw. Mechanical hyperalgesia was measured using the Pressure Application Measurement apparatus (Ugo Basile, Gemonio, Italy). Briefly, a linearly increasing pressure was applied to an area of ˜50 mm2 of the plantar side of the hind paw until a behavioural response (paw withdrawal) was observed or until the pressure reached 1000 gf. The pressure at which the behavioural response occurred was recorded as the “Paw Withdrawal Threshold” (PWT). Both CFA-injected and contralateral PWTs were determined for each rat, in each treatment group and at each time point of the studies. […] Compounds were dosed 24 hours after CFA injection. Data were expressed as the mean PWT for each treatment group and at each time point. Data were analysed by performing a repeated measures two way ANOVA (time×treatment). Planned comparison of means (each versus vehicle) was performed by using a Dunnett's post hoc test, provided that a main effect was detected. […] More preferred examples of the present invention show rat CFA in vivo efficacy in the ‘Paw withdrawal threshold 6 hours post drug’ measure when dosed at 3 mg/kg p.o.

A short description of data set [2]: In vitro metabolic stability in liver microsomes (calculation of CL and Fmax). The format is in vitro ADME, human. The note with it: 1 μM, 0.5 mg/mL protein, maximal oral bioavailability calculated from half-life. As for the experimental part: In Vitro Metabolic Stability Assays Determination of in vitro metabolic stability in microsomes (including calculation of hepatic in vivo blood clearance (CL) and of maximal oral bioavailability (Fmax))
The metabolic assay was started shortly afterwards by adding the test compound to the incubation at a final volume of 1 mL. Organic solvent in the incubations was limited to […] dimethylsulfoxide (DMSO) and ≤1% acetonitrile. […] Samples were frozen at −20° C. overnight, subsequently centrifuged for 15 minutes at 3000 rpm and the supernatant was analyzed with an Agilent 1200 HPLC-system with LCMS/MS detection.
The half-life of a test compound was determined from the concentration-time plot. From the half-life (kel: slope of concentration-time plot; half-life=ln 2/kel) the intrinsic clearances were calculated. Together with the additional parameters liver blood flow, specific liver weight and microsomal protein content the hepatic in vivo blood clearance (CL) and the maximal oral bioavailability (Fmax) were calculated for the different species.
(§1) Metabolic instability is often the main clearance mechanism of xenobiotica leading to a high CL and low bioavailability which may eventually result in a short half-life and a low exposure after oral administration. Thus, reducing the susceptibility of metabolic degradation usually leads to a more favourable pharmacokinetic profile. When using liver microsomes as incubation matrix main phase I metabolic reactions, typically oxidoreductive reactions by cytochrome P450 enzymes and flavin mono-oxygenases (FMO) and hydrolytic reactions by esterases/amidases/epoxidhydrolases, are described. When the incubation of the test compound is performed in a hepatocyte matrix all potential hepatic metabolic processes (phase I and phase II) are covered.

The next data set has as its system rat hepatocytes. The experiment in a line: In vitro metabolic stability in rat hepatocytes. It is filed as in vitro ADME, Han Wistar rats. To be noted: 1 μM, 1.0×10^6 cells/mL, maximal oral bioavailability calculated from half-life. The method, then:
Determination of in vitro metabolic stability in rat hepatocytes (including calculation of hepatic in vivo blood clearance (CL))
Hepatocytes from Han Wistar rats were isolated via a 2-step perfusion method. After perfusion, the liver was carefully removed from the rat: the liver capsule was opened and the hepatocytes were gently shaken out into a Petri dish with ice-cold Williams' medium E (WME). The resulting cell suspension was filtered through sterile gaze in 50 mL falcon tubes and centrifuged at 50×g for 3 min at room temperature. The cell pellet was resuspended in 30 mL WME and centrifuged through a Percoll® gradient for 2 times at 100×g. The hepatocytes were washed again with WME and resuspended in medium containing 5% FCS. Cell viability was determined by trypan blue exclusion.
The test compound was added to a final concentration of 1 μM. […] Samples were frozen at −20° C. overnight, subsequently centrifuged for 15 minutes at 3000 rpm and the supernatant was analyzed with an Agilent 1200 HPLC-system with LCMS/MS detection.
The half-life of a test compound was determined from the concentration-time plot. From the half-life (kel: slope of concentration-time plot; half-life=ln 2/kel) the intrinsic clearances were calculated. Together with the additional parameters liver blood flow, amount of liver cells in vivo and in vitro.
as §1

The next data set addresses human P2X3 receptor (Homo sapiens (Human), UniProt P56373). In words: Intracellular calcium measurement (FLIPR, Fluo-4) of antagonist activity at human P2X3 receptors. It is filed as cell-based. Summed up: (§2)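 Antagonism quantified from peak calcium fluorescence (Fluo-4, FLIPR, 90 sec read) evoked by EC80 α,β-Me-ATP, after a 30 min, 37° C. compound pretreatment in 1% DMSO. Human P2X3- or P2X2/3-expressing cells used; triplicate means fitted for IC50, percent maximal inhibition and Hill coefficient.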
On the technique in general: Calcium assays in cells follow changes in intracellular calcium, usually with a dye or a luminescent sensor.

The target of another data set is human P2X2/3 receptor (Homo sapiens (Human), UniProt P56373+Q9UBL9). In words: Intracellular calcium measurement (FLIPR, Fluo-4) of antagonist activity at human P2X2/3 receptors. The note with it: human P2X2/3, FLIPR calcium assay, agonist α,β-Me-ATP; read-out: hP2X2/3 IC50. It is filed as cell-based. In outline:
as §2

Data set [3] in a line: Bidirectional Caco-2 cell permeability assay. The format is in vitro ADME. To be noted: human. The method, then: Bidirectional Caco-2 Cell Permeability Assay
Caco-2 cells (purchased from DSMZ Braunschweig, Germany) were seeded at a density of 4.5×10^4 cell per well on 24 well insert plates, 0.4 μm pore size, and grown for 15 days in Dulbecco's modified Eagle medium supplemented with 10% fetal bovine serum, 1% GlutaMAX (100×, purchased from GIBCO), 100 U/ml penicillin, 100 μg/ml streptomycin (purchased from GIBCO) and 1% non-essential amino acids (100×). Cells were maintained at 37° C. in a humidified 5% CO2 atmosphere. Medium was changed every 2-3 days. […] Test compounds were dissolved in DMSO and added to the donor chamber representing either the apical or basolateral compartment in a final concentration of 2 μM. Before and after 2 h incubation at 37° C. samples were taken from both compartments (donor and receiver chamber). Analysis of compound concentrations was done after precipitation with methanol. Analysis was performed by high-pressure liquid chromatography and a tandem mass spectrometric detector using an Agilent 1200 liquid chromatography system and an AB Sciex API4000 triple-quadrupole mass spectrometer applying the parameters, which were optimized to achieve maximum signal intensity of the corresponding test compound. Permeability (Papp) was calculated in the apical to basolateral (A→B) and basolateral to apical (B→A) directions. […] The efflux ratio basolateral (B) to apical (A) was calculated by dividing the Papp B-A by the Papp A-B.
The bidirectional Caco-2 cell permeability assay is a well-established method for predicting the in vivo absorption of drugs across the gut wall by measuring the rate of transport of a compound across the Caco-2 monolayer. Since differentiated Caco-2 cells express functional efflux transport proteins like P-gp, they are also used for identification of compounds with efflux liabilities. Intestinal efflux can decrease systemic plasma concentrations of an orally dosed compound by affecting intestinal absorption of a compound.
In general terms: Caco-2 monolayers are a common model of the intestinal barrier.

Setting [4] is: human P2X3, FLIPR calcium assay, agonist α,β-Me-ATP, read-out: hP2X3 IC50.
[5] abbreviates: read-out: human P2X3 receptor IC50.

Sequence of human P2X3 receptor (P56373 whole entry): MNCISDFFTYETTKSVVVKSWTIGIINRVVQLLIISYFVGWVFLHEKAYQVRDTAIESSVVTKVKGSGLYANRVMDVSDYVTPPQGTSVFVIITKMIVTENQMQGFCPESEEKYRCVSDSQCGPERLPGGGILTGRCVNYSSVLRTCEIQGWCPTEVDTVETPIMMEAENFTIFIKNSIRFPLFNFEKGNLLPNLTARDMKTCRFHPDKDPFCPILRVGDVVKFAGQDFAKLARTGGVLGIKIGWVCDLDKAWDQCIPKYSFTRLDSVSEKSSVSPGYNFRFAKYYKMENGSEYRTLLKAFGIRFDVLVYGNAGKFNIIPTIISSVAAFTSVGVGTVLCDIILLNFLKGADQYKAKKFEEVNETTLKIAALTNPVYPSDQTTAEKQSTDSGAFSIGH
Sequence of human P2X2/3 receptor (P56373 whole entry): as above
Sequence of human P2X2/3 receptor (Q9UBL9 whole entry): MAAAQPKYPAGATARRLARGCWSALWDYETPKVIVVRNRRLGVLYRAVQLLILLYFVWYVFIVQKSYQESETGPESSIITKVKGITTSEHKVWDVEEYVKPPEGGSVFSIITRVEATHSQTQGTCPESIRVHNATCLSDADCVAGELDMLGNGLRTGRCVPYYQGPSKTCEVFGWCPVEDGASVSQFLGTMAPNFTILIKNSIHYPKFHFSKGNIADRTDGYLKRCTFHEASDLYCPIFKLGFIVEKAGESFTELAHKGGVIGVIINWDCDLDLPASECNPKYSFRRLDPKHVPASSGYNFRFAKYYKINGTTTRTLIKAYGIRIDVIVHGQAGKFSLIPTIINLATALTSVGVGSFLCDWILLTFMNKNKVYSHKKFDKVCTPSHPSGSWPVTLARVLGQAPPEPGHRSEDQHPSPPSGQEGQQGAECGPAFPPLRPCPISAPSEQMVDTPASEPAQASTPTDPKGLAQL

As to `CC(O)C(C)Oc1cc(C(=O)N[C@H](C)c2cnc(C(F)(F)F)nc2)cc(-c2ncc(Cl)s2)c1` (single isomer, unassigned) [Example 185], the “Paw withdrawal threshold 6 hour-post drug” value in data set [1] (3 mg/kg p.o.) is recorded as 630 ± 81 (*) gf.

`Cc1cnc(-c2cc(OC(C)C(C)O)cc(C(=O)N[C@H](C)c3cnc(C(F)(F)F)nc3)c2)s1` (single isomer, unassigned) [Example 339]: the “Human liver microsome Fmax” value in data set [2] is on record as 94%. The “Rat hepatocyte Fmax” value with rat hepatocytes was 52%.

As for `Cc1cnc(-c2cc(OC(C)C(C)O)cc(C(=O)N[C@H](C)c3ccc(C(F)(F)F)nn3)c2)s1` (single isomer, unassigned) [Example 183], the “Human liver microsome Fmax” value in data set [2] was 74%. Besides, the “Rat hepatocyte Fmax” value in the data set on rat hepatocytes was 43%.

As for `Cc1cnc(-c2cc(OC(C)C(C)O)cc(C(=O)N[C@H](C)c3cnc(C(F)(F)F)nc3)c2)s1` (single isomer, unassigned) [Example 340], in data set [2], the “Human liver microsome Fmax” value was 90%. Further, the “Rat hepatocyte Fmax” value in the data set with rat hepatocytes was 64%.

With `Cc1cnc(-c2cc(OC[C@H]3CN(C)CCO3)cc(C(=O)N[C@H](C)c3cnc(C(F)(F)F)nc3)c2)s1` [Example 348, 3-{[(2R)-4-methylmorpholin-2-yl]methoxy}-5-(5-methyl-1,3-thiazol-2-yl)-N-{(1R)-1-[2-(trifluoromethyl)pyrimidin-5-yl]ethyl}benzamide], the IC50 on human P2X3 receptor (setting [4]) amounted to 7 nM; at human P2X3 receptor (setting [5]) it was 7 nM; on human P2X2/3 receptor, 760 nM. Besides, the “Paw withdrawal threshold 6 hour-post drug” value in data set [1] (0.3 mg/kg p.o.) is reported as 599 ± 47 gf (*); in data set [1] (1 mg/kg p.o.) it was 601 ± 28 gf (**); in data set [1] (3 mg/kg p.o.), 633 ± 59 gf (*).

As for `Cc1cnc(-c2cc(OC3COC3)cc(C(=O)N[C@H](C)c3cnc(C(F)(F)F)nc3)c2)s1` [Example 48, 3-(5-Methyl-1,3-thiazol-2-yl)-5-(oxetan-3-yloxy)-N-{(1R)-1-[2-(trifluoromethyl)pyrimidin-5-yl]ethyl}benzamide], the IC50 was 14 nM at human P2X3 receptor (setting [4]), 14 nM on human P2X3 receptor (setting [5]) and 451 nM on human P2X2/3 receptor. Further, the “Paw withdrawal threshold 6 hour-post drug” value in data set [1] (3 mg/kg p.o.) was 817 ± 69 gf (****).

Take `CCc1cnc(-c2cc(OC[C@H]3CN(C)CCO3)cc(C(=O)N[C@H](C)c3ccc(C(F)(F)F)nn3)c2)s1` [Example 419, 3-(5-ethyl-1,3-thiazol-2-yl)-5-{[(2R)-4-methylmorpholin-2-yl]methoxy}-N-{(1R)-1-[6-(trifluoromethyl)pyridazin-3-yl]ethyl}benzamide]: the values for the IC50 at human P2X3 receptor (setting [4]) and at human P2X2/3 receptor were 9 nM and 1140 nM, respectively. Moreover, the efflux ratio at 2 h, 2 μM in data set [3] (Caco-2, pH 7.2, Papp B-A divided by Papp A-B) stood at 1.7. This compound displayed a Papp A→B at 2 h, 2 μM in data set [3] (Caco-2, apical to basolateral, 2 μM, 2 h, 37° C., pH 7.2) of 10.4 ×10⁻⁶ cm/s. In addition, in data set [3] (Caco-2, basolateral to apical, 2 μM, 2 h, 37° C., pH 7.2), the apparent permeability from basolateral to apical (Papp B→A) at 2 h, 2 μM was 17.5 ×10⁻⁶ cm/s. In addition, the “Human liver microsome Fmax” value in data set [2] is reported as 74%. Besides, the “Rat hepatocyte Fmax” value with rat hepatocytes was 51%.

For the compound `CC(=O)N1CCC(Oc2cc(C(=O)N[C@H](C)c3cnc(C(F)(F)F)nc3)cc(-c3ncc(C)s3)c2)CC1` [Example 150, 3-[(1-acetylpiperidin-4-yl)oxy]-5-(5-methyl-1,3-thiazol-2-yl)-N-{(1R)-1-[2-(trifluoromethyl)pyrimidin-5-yl]ethyl}benzamide], the IC50 was 12 nM at human P2X3 receptor (setting [4]) and 83 nM at human P2X2/3 receptor.

For the compound `Cc1cnc(-c2cc(OC3CCOCC3)cc(C(=O)N[C@H](C)c3cnc(C(F)(F)F)nc3)c2)s1` [Example 85, 3-(5-Methyl-1,3-thiazol-2-yl)-5-(tetrahydro-2H-pyran-4-yloxy)-N-{(1R)-1-[2-(trifluoromethyl)pyrimidin-5-yl]ethyl}benzamide], the IC50 came to 10 nM on human P2X3 receptor (setting [4]) and 36 nM on human P2X2/3 receptor.

Take `Cc1ccc(CNC(=O)c2cc(OC3COC3)cc(-c3ncc(C)s3)c2)nn1` [Example 45, N-[(6-Methylpyridazin-3-yl)methyl]-3-(5-methyl-1,3-thiazol-2-yl)-5-(oxetan-3-yloxy)benzamide]: the IC50 on human P2X3 receptor (setting [4]) was found to be 212 nM; at human P2X2/3 receptor, 1510 nM.

For the compound `Cc1cnc(-c2cc(OCC3CC3)cc(C(=O)NC(C)c3ncc(Cl)cc3F)c2)s1` (racemic) [Example 6, N-[1-(5-Chloro-3-fluoropyridin-2-yl)ethyl]-3-(cyclopropylmethoxy)-5-(5-methyl-1,3-thiazol-2-yl)benzamide], the results for the IC50 on human P2X3 receptor (setting [4]) and at human P2X2/3 receptor were 4 nM and 38 nM, respectively.

As to `COc1ccc(CNC(=O)c2cc(OC3CCOCC3)cc(-c3ncc(C)s3)c2)nn1` [Example 88, N-[(6-Methoxypyridazin-3-yl)methyl]-3-(5-methyl-1,3-thiazol-2-yl)-5-(tetrahydro-2H-pyran-4-yloxy)benzamide], the IC50 on human P2X3 receptor (setting [4]) amounted to 30 nM; on human P2X2/3 receptor it was 217 nM.

For orientation: efflux ratio means the permeability from basolateral to apical divided by that in the opposite direction, in the common usage. One may read the Papp A→B as how fast a substance crosses the layer from the apical side. Low readings indicate poor permeation, high ones ready permeation. One may read the Papp B→A as how fast a substance crosses the layer from the basolateral side.
